Test results published in US20250304623A1, “PEPTIDES FOR INTRACELLULAR DELIVERY” (UNIVERSIDADE DE SANTIAGO DE COMPOSTELA, priority 2022, published 2025).
*: point of attachment. NHNH2 = NN*

Key:
Assay type in all cases: cell-based
[1] = system: A549 cells; experiment: EGFP mRNA delivery, robotic library screening, A549
Description: (§1) Cells were seeded in a 96 well plate the day before the experiment at a concentration of 50,000 cell/mL (100 μL/w) in DMEM+10% FBS+1% Gln-Abt. For robotic library screening, the delivery of EGFP-mRNA (from TriLink, fully substituted with 5-methoxyuridine, capped and polyadenylated; TriLink, CleanCap® EGFP mRNA (5moU), ref. L-7201) in six different cell lines was performed. Amphiphilic molecule stock solutions were prepared in DMSO as described above and diluted in DMEM to afford a range of concentrations. The solutions of EGFP-mRNA/amphiphilic molecule complexes were freshly prepared prior to the transfection experiments. 35 μL of the corresponding amphiphile were added to 10 μL of a solution of EGFP-mRNA at 10 ng/μL in DMEM. The mixture was shaken for 30 min at room temperature before the addition to the cells. The cell medium was aspirated, and cells were washed with PBS twice. Cells were covered with 39 μL of DMEM and 11 μL of the complex's solution were added to the cells and incubated for 4 h (final concentration of peptide=2.5, 5 and 10 μM; final concentration of EGFP-mRNA=25 ng/well). After the incubation, the medium was replaced by 100 μL of fresh DMEM supplemented with 10% FBS. The total EGFP fluorescence was quantified after 72 h in a well plate reader. Amphiphile transfection efficiency was compared and normalized to Lipofectamine® MessengerMax efficiency (value of 1 in Tables 1-5 and 7; double underlined numbers). All experiments were done in triplicate.
(§2) Tables 1-7: RLuc (pDNA) or EGFP (mRNA) expression levels were normalized to Lipofectamine reagents (value=1) and expressed as fold-times signal increase. In the case of siRNA, the siRNA treated cells fluorescence was compared with siMOCK control fluorescence, while Cas9-RNP mediated knockout was measured against the fluorescence of untreated cells. In both siRNA and Cas9-RNP, values are expressed as % fluorescence reduction. Amphiphile concentration was 5 μM in all cases. All experiments were performed in triplicate.
(§3) Tables 14-19 show the mean (triplicates) fluorescence intensity measured after the transfection of EGFP mRNA by different amphiphiles at different concentrations in a variety of cell lines. Background fluorescence values, accounted by untreated control cells, were subtracted for processing.

[2] = system: A549 cells expressing EGFP; experiment: Cas9-RNP delivery against EGFP (gene editing, plate reader), A549; conditions: A549 cells
Description: To generate an EGFP expressing HeLa cell line, HeLa cells were transfected with EGFP pDNA (pEGFP-C1, Clontech) and stable transfectants were selected with 400 μg/mL of G-418 (Millipore). Green clones were selected by epifluorescence microscopy and tested for EGFP expression stability through several passages. […] All other EGFP-expressing cell lines were obtained in a similar way from parent non-EGFP-expressing cell lines.
Cells expressing EGFP were seeded in a 96 well plate the day before the experiment at a concentration of 50,000 cell/mL (100 μL/w) in DMEM+10% FBS+1% Gln-Abt. For robotic library screening, the delivery of Cas9-RNP against EGFP (RNP designed to knock-out the gene encoding for the enhanced green fluorescent protein (EGFP)) was performed. For RNP assembly, 9.2 μL of crRNA and 9.2 μL of tracrRNA were mixed in 211.6 μL of Nuclease-Free Duplex Buffer (IDT), incubated for 5 min at 95° C. and slowly cooled at rt (see I. Lostalé-Seijo, et al. Peptide/Cas9 nanostructures for ribonucleoprotein cell membrane transport and gene edition, Chem. Sci., 2017). Cas9 protein was dissolved in DMEM at a final concentration of 4 μM and equal volumes of the RNA complex and Cas9 were mixed and incubated for 5 min at rt. 75 μL of the corresponding amphiphile concentrations were added to 5 μL of RNP at 2 μM. The mixture was shaken for 30 min at room temperature before the addition to the cells. The cell medium was aspirated, and cells were washed twice with PBS. Cells were covered with 30 μL of DMEM and 20 μL of the RNP/amphiphile complexes were added to the cells (final peptide concentrations=2.5, 5 and 10 μM; final Cas9-RNP concentration=50 nM) and incubated for 4 h. After the incubation, the medium was replaced by 100 μL of fresh DMEM supplemented with 10% FBS. The total EGFP fluorescence was quantified after 72 h in a plate reader (FIG. 2, Table 1 (right) and Table 6). All experiments were done in triplicate.
as §2
Tables 26-31 show the mean (triplicates) percentage of gene editing, accounted by GFP fluorescence intensity decrease (% of reduction), measured after the transfection of Cas9-RNP by different amphiphiles at different concentrations in a variety of cell lines. Background values, accounted by untreated control cells, were subtracted for processing.

[3] = system: ARPE19 cells; experiment: EGFP mRNA delivery, robotic library screening, ARPE19
Description: as §1, §2, §3

[4] = system: ARPE19 cells; experiment: RLuc pDNA delivery, robotic library screening, ARPE19

Ac-RHLK*RHK*RRLK*RH-NH2 (Ac-RHLKRHKRRLKRH-NH2; not fully specified (residues 4, 7, 11); printed as Ac-RHLK*RHK*RRLK*RH-NH2; also: linker on K* not given here) [13(3His)]
mean fluorescence intensity (EGFP mRNA) ([1]; Dodecanal, 2.5 μM): 622 | mean fluorescence intensity (EGFP mRNA) ([1]; Dodecanal, 5 μM): 945 | mean fluorescence intensity (EGFP mRNA) ([1]; Dodecanal, 10 μM): 453 | mean fluorescence intensity (EGFP mRNA) ([1]; Myristoleyl, 2.5 μM): 1558 | mean fluorescence intensity (EGFP mRNA) ([1]; Myristoleyl, 5 μM): 1386 | mean fluorescence intensity (EGFP mRNA) ([1]; Myristoleyl, 10 μM): 696 | mean fluorescence intensity (EGFP mRNA) ([1]; Oleyl, 2.5 μM): 1063 | mean fluorescence intensity (EGFP mRNA) ([1]; Oleyl, 5 μM): 1233 | mean fluorescence intensity (EGFP mRNA) ([1]; Oleyl, 10 μM): 109 | mean fluorescence intensity (EGFP mRNA) ([1]; Palmitoleyl, 2.5 μM): 1138 | mean fluorescence intensity (EGFP mRNA) ([1]; Palmitoleyl, 10 μM): 65 | mean fluorescence intensity (EGFP mRNA) ([1]; Petroselinyl, 2.5 μM): 2598 | mean fluorescence intensity (EGFP mRNA) ([1]; Petroselinyl, 5 μM): 1675 | mean fluorescence intensity (EGFP mRNA) ([1]; Petroselinyl, 10 μM): 1017 | percentage of gene editing, GFP fluorescence intensity decrease (% of reduction) ([2]; Myristoleyl, 5 μM): 5% | percentage of gene editing, GFP fluorescence intensity decrease (% of reduction) ([2]; Myristoleyl, 10 μM): 11% | percentage of gene editing, GFP fluorescence intensity decrease (% of reduction) ([2]; Myristoleyl, 15 μM): 43% | percentage of gene editing, GFP fluorescence intensity decrease (% of reduction) ([2]; Oleyl, 15 μM): 4% | percentage of gene editing, GFP fluorescence intensity decrease (% of reduction) ([2]; Palmitoleyl, 15 μM): 18% | mean fluorescence intensity (EGFP mRNA) ([3]; Myristoleyl, 5 μM): 393 | mean fluorescence intensity (EGFP mRNA) ([3]; Petroselinyl, 2.5 μM): 596 | mean fluorescence intensity (EGFP mRNA) ([3]; Petroselinyl, 5 μM): 384 | mean fluorescence intensity (EGFP mRNA) ([3]; Petroselinyl, 10 μM): 508 | mean luminescent intensity (RLuc pDNA) ([4]; Dodecanal, 5 μM): 11495 RLU | mean luminescent intensity (RLuc pDNA) ([4]; Dodecanal, 10 μM): 366 RLU | mean luminescent intensity (RLuc pDNA) ([4]; Myristoleyl, 5 μM): 32411 RLU | mean luminescent intensity (RLuc pDNA) ([4]; Myristoleyl, 10 μM): 1998 RLU | mean luminescent intensity (RLuc pDNA) ([4]; Myristoleyl, 15 μM): 28 RLU | mean luminescent intensity (RLuc pDNA) ([4]; Oleyl, 5 μM): 6754 RLU | mean luminescent intensity (RLuc pDNA) ([4]; Palmitoleyl, 5 μM): 40629 RLU | mean luminescent intensity (RLuc pDNA) ([4]; Palmitoleyl, 10 μM): 6400 RLU | mean luminescent intensity (RLuc pDNA) ([4]; Petroselinyl, 5 μM): 33797 RLU | mean luminescent intensity (RLuc pDNA) ([4]; Petroselinyl, 10 μM): 10940 RLU | mean luminescent intensity (RLuc pDNA) ([4]; Petroselinyl, 15 μM): 3792 RLU

Ac-RRLK*RLLRRLK*RL-NH2 (Ac-RRLK(NHNH2)RLLRRLK(NHNH2)RL-NH2; not fully specified; printed as Ac-RRLK*RLLRRLK*RL-NH2; also: K*4,K*11: native or modified lysine (ε-amide to a linker)) [Peptide 13.2]
mean fluorescence intensity (EGFP mRNA) ([1]; Oleyl, 2.5 μM): 136 | mean fluorescence intensity (EGFP mRNA) ([1]; Oleyl, 5 μM): 160 | mean fluorescence intensity (EGFP mRNA) ([1]; Oleyl, 10 μM): 22 | percentage of gene editing, GFP fluorescence intensity decrease (% of reduction) ([2]; Oleyl, 5 μM): 10% | percentage of gene editing, GFP fluorescence intensity decrease (% of reduction) ([2]; Oleyl, 10 μM): 12% | percentage of gene editing, GFP fluorescence intensity decrease (% of reduction) ([2]; Oleyl, 15 μM): 4% | mean luminescent intensity (RLuc pDNA) ([4]; Oleyl, 5 μM): 1077 RLU | mean luminescent intensity (RLuc pDNA) ([4]; Oleyl, 10 μM): 499 RLU | mean luminescent intensity (RLuc pDNA) ([4]; Oleyl, 15 μM): 641 RLU
